Source: US4886884A, “Derivatives from cervinomycin based antibiotics” (The Kitazato Institute, priority 1986, dated 1989)
≈ marks a conversion by molar mass, not a printed value. Like-named read-outs stand apart in the source and are kept apart here.

Assays:
[1] = system: Gram-positive and Gram-negative bacteria, mycoplasmas; assay: Antimicrobial activity (overall, in words); assay type: cell-based
[2] = system: Escherichia coli KB-176 (NIHJ JC-2); assay: Antibacterial activity, minimum inhibitory concentration (MIC); assay type: cell-based
[3] = system: Salmonella typhimurium KB-20; assay: as above; assay type: cell-based; conditions: Salmonella enterica
[4] = system: Mycoplasma gallisepticum KB-171 (S-6); assay: as above; assay type: cell-based; conditions: Mycoplasmoides gallisepticum
[5] = system: Klebsiella pneumoniae KB-214 (ATCC 10031); assay: as above; assay type: cell-based
[6] = system: Proteus vulgaris KB-127 (IFO 3167); assay: as above; assay type: cell-based
[7] = system: Mycoplasma pneumoniae KB-173; assay: as above; assay type: cell-based
[8] = system: Staphylococcus aureus KB-210 (ATCC 6538P); assay: as above; assay type: cell-based; conditions: ATCC6538P
[9] = system: Peptococcus variabilis KB-235 (ATCC 14955); assay: as above; assay type: cell-based
[10] = system: Bacillus cereus KB-143 (IFO 3001); assay: as above; assay type: cell-based
[11] = system: Bacillus subtilis KB-211 (ATCC 6633); assay: as above; assay type: cell-based
[12] = Solubility in different solvents; assay type: physicochemical; conditions: organic solvent or mixture
Excerpt: Compounds (1) of the present invention had the following solubilities in different solvents.

[13] = system: Clostridium perfringens (ATCC 13124); assay: microbe, parasite or virus in culture; assay type: cell-based; conditions: ATCC13124
[14] = system: Acholeplasma laidlawii KB-174 (PG-8); assay: Antibacterial activity, minimum inhibitory concentration (MIC); assay type: cell-based
[15] = system: Micrococcus luteus KB-212 (ATCC 9341); assay: as above; assay type: cell-based
[16] = Acute toxicity test by oral administration; conditions: mouse, in vivo
[17] = system: Bacteroides fragilis KB-169 (ATCC 23749); assay: Antibacterial activity, minimum inhibitory concentration (MIC); assay type: cell-based
[18] = system: Pseudomonas aeruginosa KB-115 (IFO 3080); assay: as above; assay type: cell-based
[19] = system: Clostridium difficile (ATCC 9689); assay: as above; assay type: cell-based; conditions: Clostridioides difficile, ATCC9689
[20] = system: Bifidobacterium bifidum (ATCC 11146); assay: as above; assay type: cell-based
[21] = in vivo; conditions: mouse, po
[22] = acetic acid, read-out: Solubility in Acetic acid
[23] = dmso, read-out: Solubility in DMSO
[24] = methanol, read-out: Solubility in Methanol
[25] = NIHJJC2, inoculum 1 × 10^6 cells/ml, 37° C., read-out: MIC
[26] = ATCC10031, inoculum 1 × 10^6 cells/ml, 37° C., read-out: MIC
[27] = IFO3167, inoculum 1 × 10^6 cells/ml, 37° C., read-out: MIC
[28] = inoculum 1 × 10^6 cells/ml, 37° C., read-out: MIC
[29] = IFO3001, inoculum 1 × 10^6 cells/ml, 37° C., read-out: MIC
[30] = ATCC6633, inoculum 1 × 10^6 cells/ml, 37° C., read-out: MIC
[31] = ATCC9341, inoculum 1 × 10^6 cells/ml, 37° C., read-out: MIC
[32] = ATCC11146, inoculum 1 × 10^6 cells/ml, 37° C., read-out: MIC
[33] = ATCC23749, inoculum 1 × 10^6 cells/ml, 37° C., read-out: MIC
[34] = IFO3080, inoculum 1 × 10^6 cells/ml, 37° C., read-out: MIC

For `COc1cc2oc3c(c(=O)c2cc1OC)C(=O)c1c(ccc2c(C)c4c(c(OC)c12)C(=O)N1CCOC1(C)C4)C3=O` (centres unmarked) [C,O-dimethyl Cervinomycin A2], the antimicrobial activity [1] was “substantially equal to those of Cervinomycin A1 and A2”.

With `COc1cc2oc3c(c(=O)c2cc1OC)C(=O)c1c(ccc2c(C)c4c(c(O)c12)C(=O)N1CCOC1(C)C4)C3=O` (centres unmarked) [C-methyl Cervinomycin A2] the antimicrobial activity [1] was “substantially equal to those of Cervinomycin A1 and A2”.

For `COc1cc2oc3c(O)c4ccc5cc6c(c(O)c5c4c(O)c3c(=O)c2cc1OC)C(=O)N1CCOC1(C)C6` (centres unmarked) [Cervinomycin A1, reference compound], the MIC ([2]; NIHJJC2) was over 10 µg/mL, the MIC [3] was over 10 µg/mL and the MIC [4] was 12.5 µg/mL (≈ 23.6 µM). For the same compound, the MIC ([5]; ATCC10031) was over 10 µg/mL, the MIC ([6]; IFO3167) was over 10 µg/mL and the MIC ([7]; KB173) was 12.5 µg/mL (≈ 23.6 µM). The MIC [8] was 5 µg/mL (≈ 9.44 µM), the MIC [9] was 0.62 µg/mL (≈ 1.17 µM) and the MIC ([10]; IFO3001) was 10 µg/mL (≈ 18.9 µM). It also gave an MIC ([11]; ATCC6633) of 2.5 µg/mL (≈ 4.72 µM), a solubility [12, 22] of 23 µg/mL (≈ 43.4 µM) and a solubility [12, 23] of 78 µg/mL (≈ 147 µM). For the same compound, the solubility [12, 24] was 0.3 µg/mL (≈ 0.567 µM), the MIC [13] was 1.25 µg/mL (≈ 2.36 µM) and the MIC [14] was 12.5 µg/mL (≈ 23.6 µM). For the same compound, the MIC ([15]; ATCC9341) was 5 µg/mL (≈ 9.44 µM), the LD50 [16] was 320 mg/kg and the MIC ([17]; ATCC23749) was 1.25 µg/mL (≈ 2.36 µM). It also gave an MIC ([18]; IFO3080) of over 10 µg/mL.

With `CCC[C@@H]1C[C@@H](C(=O)N[C@@H]([C@H]2O[C@H](SC)[C@H](O)[C@@H](O)[C@H]2O)[C@H](C)Cl)N(C)C1` [Clindamycin, reference compound] the MIC [2, 25] was over 10 µg/mL, the MIC [3] was over 10 µg/mL and the MIC [4] was 0.62 µg/mL (≈ 1.46 µM). It also gave an MIC [5, 26] of over 10 µg/mL, an MIC [6, 27] of over 10 µg/mL and an MIC ([7]; KB173) of 0.62 µg/mL (≈ 1.46 µM). For the same compound, the MIC [8, 28] was 0.16 µg/mL (≈ 0.376 µM), the MIC [9, 28] was 0.16 µg/mL (≈ 0.376 µM) and the MIC [10, 29] was 0.63 µg/mL (≈ 1.48 µM). It also gave an MIC [11, 30] of 2.5 µg/mL (≈ 5.88 µM), an MIC [13] of 0.4 µg/mL (≈ 0.941 µM) and an MIC [19, 28] of 6.3 µg/mL (≈ 14.8 µM). It also gave an MIC [14] of 0.62 µg/mL (≈ 1.46 µM), an MIC [15, 31] of 0.04 µg/mL (≈ 0.0941 µM) and an MIC [20, 32] of 0.02 µg/mL (≈ 0.0471 µM). For the same compound, the MIC [17, 33] was 0.08 µg/mL (≈ 0.188 µM) and the MIC [18, 34] was over 10 µg/mL.

In the case of `COc1cc2oc3c(c(=O)c2cc1OC)C(=O)c1c(ccc2cc4c(c(OC(C)=O)c12)C(=O)N1CCOC1(C)C4)C3=O` (centres unmarked) [Monoacetyl Cervinomycin A2, monoacetyl Cervinomycin A2], the MIC [2, 25] is reported as over 10 µg/mL, the MIC [3, 28] is reported as over 10 µg/mL and the MIC [4, 28] is reported as 1.25 µg/mL (≈ 2.19 µM). The MIC [5, 26] was over 10 µg/mL, the LD50 [21] was 1800 mg/kg and the MIC [6, 27] was over 10 µg/mL. The MIC ([7]; KB173, inoculum 1 × 10^6 cells/ml, 37° C., read-out: MIC) was 0.6 µg/mL (≈ 1.05 µM), the MIC [8, 28] was 0.31 µg/mL (≈ 0.544 µM) and the MIC [10, 29] was 0.16 µg/mL (≈ 0.281 µM). It also gave an MIC [11, 30] of 0.08 µg/mL (≈ 0.14 µM), a solubility [12, 22] of 3000 µg/mL (≈ 5270 µM) and a solubility [12, 23] of 5000 µg/mL (≈ 8780 µM). It also gave a solubility [12, 24] of 300 µg/mL (≈ 527 µM), an MIC [13] of 0.02 µg/mL (≈ 0.0351 µM) and an MIC [19, 28] of 0.05 µg/mL (≈ 0.0878 µM). The MIC [14, 28] was 1.25 µg/mL (≈ 2.19 µM), the MIC [15, 31] was 0.4 µg/mL (≈ 0.702 µM) and the MIC [20, 32] was 0.2 µg/mL (≈ 0.351 µM). The MIC [17, 33] was 0.1 µg/mL (≈ 0.176 µM) and the MIC [18, 34] was over 10 µg/mL.

In the case of `COc1cc2oc3c(c(=O)c2cc1OC)C(=O)c1c(ccc2cc4c(c(OC)c12)C(=O)N1CCOC1(C)C4)C3=O` (centres unmarked) [O-methyl Cervinomycin A2], the antimicrobial activity [1] is reported as “substantially equal to those of Cervinomycin A1 and A2”.

`COc1cc2oc3c(OC(C)=O)c4ccc5cc6c(c(OC(C)=O)c5c4c(OC(C)=O)c3c(=O)c2cc1OC)C(=O)N1CCOC1(C)C6` (centres unmarked) [Triacetyl Cervinomycin A1, triacetyl Cervinomycin A1] showed an MIC ([2]; NIHJJC2) of over 10 µg/mL, an MIC [3] of over 10 µg/mL and an MIC [4] of 0.156 µg/mL (≈ 0.238 µM). The MIC ([5]; ATCC10031) was over 10 µg/mL, the MIC ([6]; IFO3167) was over 10 µg/mL and the MIC ([7]; KB173) was 0.156 µg/mL (≈ 0.238 µM). For the same compound, the MIC [8] was 0.16 µg/mL (≈ 0.244 µM), the MIC [9] was 0.02 µg/mL (≈ 0.0305 µM) and the MIC ([10]; IFO3001) was 0.31 µg/mL (≈ 0.473 µM). For the same compound, the MIC ([11]; ATCC6633) was over 0.02 µg/mL, the solubility [12, 22] was over 25000 µg/mL and the solubility [12, 23] was over 50000 µg/mL. For the same compound, the solubility [12, 24] was 1400 µg/mL (≈ 2140 µM), the MIC [13] was 0.02 µg/mL (≈ 0.0305 µM) and the MIC [19] was 0.05 µg/mL (≈ 0.0763 µM). It also gave an MIC [14] of 0.312 µg/mL (≈ 0.476 µM), an MIC ([15]; ATCC9341) of 0.08 µg/mL (≈ 0.122 µM) and an LD50 [16] of 1620 mg/kg. It also gave an MIC ([20]; ATCC11146) of 0.2 µg/mL (≈ 0.305 µM), an MIC ([17]; ATCC23749) of 0.1 µg/mL (≈ 0.153 µM) and an MIC ([18]; IFO3080) of over 10 µg/mL.
